Where two headings read alike, the source gives them in different places.
Assays:
hGLP1R = molecular target: T1, hGLP1R (Homo sapiens, UniProt P43220); assay: hGLP1R CreLuc reporter gene assay in 0.5% and 100% plasma; assay type: cell-based; settings: CreLuc reporter gene assay
T1 construct: expressed in transfected cells; host or cells: HEK-293 cells carrying a CRE-luciferase reporter gene
Procedure, shortened: (§1)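 HEK-293 cells co-expressing GLP-1 or NPY2 receptor and CHO cells expressing GIP receptor, each carrying a CRE-driven luciferase reporter, were stimulated with peptides for 4 hours at 37 °C. Luminescence was read after Bright-Glo addition. EC50 came from 8-point, four-decade curves fitted by variable-slope non-linear regression.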

hGIPR = molecular target: T2, hGIPR (Homo sapiens, UniProt P48546); assay: hGIPR CreLuc reporter gene assay in 0.5% and 100% plasma; assay type: cell-based; settings: CreLuc reporter gene assay
T2 construct: expressed in transfected cells; host or cells: CHO cells carrying a CRE-luciferase reporter gene
T2 sequence (P48546 22-466): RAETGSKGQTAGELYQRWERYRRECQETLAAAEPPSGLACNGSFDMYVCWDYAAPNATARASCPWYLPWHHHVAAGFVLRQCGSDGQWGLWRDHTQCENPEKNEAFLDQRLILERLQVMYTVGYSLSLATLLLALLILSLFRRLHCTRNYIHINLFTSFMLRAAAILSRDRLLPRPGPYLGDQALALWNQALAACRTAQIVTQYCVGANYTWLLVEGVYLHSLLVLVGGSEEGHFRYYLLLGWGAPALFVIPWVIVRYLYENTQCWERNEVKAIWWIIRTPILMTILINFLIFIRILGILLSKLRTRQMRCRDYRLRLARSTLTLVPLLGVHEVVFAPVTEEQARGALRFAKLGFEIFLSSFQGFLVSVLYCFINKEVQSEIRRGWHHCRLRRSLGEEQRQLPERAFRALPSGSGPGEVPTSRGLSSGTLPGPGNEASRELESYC
Procedure, shortened: as §1

hNPY2R = molecular target: T3, hNPY2R (Homo sapiens, UniProt P49146); assay: hNPY2R CreLuc reporter gene assay in 0.5% and 100% plasma; assay type: cell-based; settings: CreLuc reporter gene assay
T3 construct: expressed in transfected cells; host or cells: HEK-293 cells carrying a CRE-luciferase reporter gene
T3 sequence (P49146 1-381): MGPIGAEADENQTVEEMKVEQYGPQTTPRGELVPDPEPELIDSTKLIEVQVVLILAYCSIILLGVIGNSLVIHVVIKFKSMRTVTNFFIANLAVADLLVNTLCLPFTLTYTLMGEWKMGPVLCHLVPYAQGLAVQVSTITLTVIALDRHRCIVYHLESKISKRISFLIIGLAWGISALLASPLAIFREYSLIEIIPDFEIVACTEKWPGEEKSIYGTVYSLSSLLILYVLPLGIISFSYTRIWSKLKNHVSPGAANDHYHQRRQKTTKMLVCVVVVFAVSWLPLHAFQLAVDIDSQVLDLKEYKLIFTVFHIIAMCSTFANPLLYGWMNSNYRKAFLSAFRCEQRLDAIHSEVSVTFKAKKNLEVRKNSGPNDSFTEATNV
Procedure, shortened: as §1

[1] = Mouse PK after intravenous application; assay type: in vivo; settings: plasma, mean residence time, intravenous 30-60 nmol/kg, male NMRI mice
Procedure, shortened: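 Male NMRI mice (30–40 g) received 30-60 nmol/kg peptide by tail-vein injection, dissolved in 50 mM phosphate buffer (pH 7.4)/3.5% mannitol. Saphenous blood was sampled up to 56 hours post-dose and EDTA plasma analysed by LC-MS. PK parameters came from non-compartmental analysis.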

[2] = Effect on acute food intake in normal NMRI mice; assay type: in vivo; settings: 30 nmol/kg subcutaneously once, normalized to vehicle group, male NMRI mice
Procedure: Example 4: Effect on Acute Food Intake in Normal NMRI Mice
Male NMRI mice were obtained from Janvier (Janvier Labs, France) or from Charles River (Charles River Research Models & Services Germany GmbH) at the age of 3 weeks. The animals get a microchip (Datamars, Slim Microchip T-SL) for individual identification after delivery. They were housed with 4 mice per cage under a 12/12 dark-light cycle, light off at 3 p.m. Room temperature was controlled to 21° C. +/−1° C. and humidity 60%+/−20%. Mice had ad libitum access to regular rodent chow (KLIBA Nafag 3040 or Altromin 1324, Brogaarden, Denmark) and tap water.
Latest transfer into the HM2-System of MBRose, Denmark (real-time monitoring system of food- and water intake) of the animals 5 days before study start, to allow acclimatization to experimental conditions. As the animals were uniquely identified with the microchips, each individual animal was identified by its own microchip upon entry and exit from the food channel via antennae. Randomization of the mice for each study group (n=8; age earliest 6 weeks old) was based on food intake (middle of last three days 24 h-Intervall) and bodyweight directly before start of the study. A vehicle treated (50 mM phosphate buffer pH7.4 with 3.5% Mannitol) group was included in each experiment. To have the same nutrition standard for each animal the food access was locked eight hours before dark phase. One hour before night, the animals were once treated subcutaneously with the test peptide. Food intake was reported hourly for a period of 24 h.

[3] = 0.5% human plasma, read-out: hGLP1R 0.5% hP
[4] = 0.5% human plasma, read-out: hGIPR 0.5% hP
[5] = 0.5% human plasma, read-out: hNPY2R 0.5% hP
[6] = 100% human plasma, read-out: hNPY2R 100% hP

T1 sequence (P43220 24-463): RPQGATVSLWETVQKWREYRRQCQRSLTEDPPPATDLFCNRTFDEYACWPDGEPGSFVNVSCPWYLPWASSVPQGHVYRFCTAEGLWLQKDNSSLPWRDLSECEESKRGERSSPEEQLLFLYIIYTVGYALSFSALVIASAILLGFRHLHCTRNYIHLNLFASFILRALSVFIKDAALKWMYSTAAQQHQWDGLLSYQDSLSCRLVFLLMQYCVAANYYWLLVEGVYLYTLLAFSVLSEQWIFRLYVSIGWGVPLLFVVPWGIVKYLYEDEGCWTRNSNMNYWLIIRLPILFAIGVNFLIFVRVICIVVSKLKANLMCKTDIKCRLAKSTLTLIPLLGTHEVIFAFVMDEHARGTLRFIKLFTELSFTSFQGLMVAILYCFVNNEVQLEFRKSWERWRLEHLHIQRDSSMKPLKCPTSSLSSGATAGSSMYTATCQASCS

| Compound | EC50 (hGLP1R; [3]) | EC50 (hGLP1R; 100% human plasma, read-out: hGLP1R 100% hP) | EC50 (hGIPR; [4]) | EC50 (hGIPR; 100% human plasma, read-out: hGIPR 100% hP) | EC50 (hNPY2R; [5]) | EC50 (hNPY2R; [6]) | MRT [1] | Acute Food Intake 24 h 30 nmol/kg [% CTL] [2] |
| --- | --- | --- | --- | --- | --- | --- | --- | --- |
| CC[C@H](C)[C@H](NC(=O)[C@H](CC(C)C)NC(=O)[C@H](Cc1c[nH]c2ccccc12)NC(=O)[C@H](CCC(=O)O)NC(=O)[C@@H](NC(=O)[C@H](Cc1ccccc1)NC(=O)[C@H](C)NC(=O)C(C)(C)NC(=O)[C@H](CCC(N)=O)NC(=O)[C@H](C)NC(=O)[C@H](CCC(N)=O)NC(=O)[C@H](CCCCN)NC(=O)[C@H](CCC(=O)O)NC(=O)[C@H](CC(C)C)NC(=O)C(C)(C)NC(=O)[C@@H](NC(=O)[C@H](CO)NC(=O)[C@H](Cc1ccc(O)cc1)NC(=O)[C@H](CC(=O)O)NC(=O)[C@H](CO)NC(=O)[C@@H](NC(=O)[C@H](Cc1ccccc1)NC(=O)[C@@H](NC(=O)CNC(=O)[C@H](CCC(=O)O)NC(=O)C(C)(C)NC(=O)[C@@H](N)Cc1ccc(O)cc1)[C@@H](C)O)[C@@H](C)O)[C@@H](C)CC)C(C)C)C(=O)N[C@@H](CCCCNC(=O)[C@@H](N)CCCCNC(=O)CC[C@H](NC(=O)CC[C@H](NC(=O)CC[C@H](NC(=O)CC[C@H](NC(=O)CC[C@H](NC(=O)CC[C@H](NC(=O)CCCCCCCCCCCCCCCCC(=O)O)C(=O)O)C(=O)O)C(=O)O)C(=O)O)C(=O)O)C(=O)O)C(=O)NCC(=O)NCC(=O)N1CCC[C@H]1C(=O)N[C@@H](CO)C(=O)N[C@@H](CO)C(=O)NCC(=O)N[C@@H](C)C(=O)N[C@@H](CO)C(=O)N[C@@H](CC(C)C)C(=O)N[C@@H](CCCNC(=N)N)C(=O)N[C@@H](Cc1c[nH]cn1)C(=O)N[C@@H](Cc1ccc(O)cc1)C(=O)N[C@@H](Cc1ccc(O)cc1)C(=O)N[C@@H](CC(N)=O)C(=O)N[C@@H](Cc1c[nH]c2ccccc12)C(=O)N[C@@H](CC(C)C)C(=O)N[C@H](C(=O)N[C@@H](CCCNC(=N)N)C(=O)N[C@@H](CCC(N)=O)C(=O)N[C@@H](CCCNC(=N)N)C(=O)N[C@@H](Cc1ccc(O)cc1)C(N)=O)[C@@H](C)O [Compound 259, Y-Aib-E-G-T-F-T-S-D-Y-S-I-Aib-L-E-K-Q-A-Q-Aib-A-F-V-E-W-L-I-K(1,3)-GGPSSGASLRHYYNWLTRQRY-NH2.C18DA-gGlu-gGlu-gGlu-gGlu-gGlu-gGlu-eLys(1,2)] | 0.09 nM | 2.55 nM | 0.22 nM | 0.91 nM | 10.7 nM | 29.3 nM | 8.4 h | 36 % CTL |
| CC[C@H](C)[C@H](NC(=O)[C@H](CC(C)C)NC(=O)[C@H](Cc1c[nH]c2ccccc12)NC(=O)[C@H](CCC(=O)O)NC(=O)[C@@H](NC(=O)[C@H](Cc1ccccc1)NC(=O)[C@H](C)NC(=O)C(C)(C)NC(=O)[C@H](CCC(N)=O)NC(=O)[C@H](C)NC(=O)[C@H](CCC(N)=O)NC(=O)[C@H](CCCCN)NC(=O)[C@H](CCC(=O)O)NC(=O)[C@H](CC(C)C)NC(=O)C(C)(C)NC(=O)[C@@H](NC(=O)[C@H](CO)NC(=O)[C@H](Cc1ccc(O)cc1)NC(=O)[C@H](CC(=O)O)NC(=O)[C@H](CO)NC(=O)[C@@H](NC(=O)[C@H](Cc1ccccc1)NC(=O)[C@@H](NC(=O)CNC(=O)[C@H](CCC(=O)O)NC(=O)C(C)(C)NC(=O)[C@@H](N)Cc1ccc(O)cc1)[C@@H](C)O)[C@@H](C)O)[C@@H](C)CC)C(C)C)C(=O)N[C@@H](CCCCNC(=O)[C@@H](N)CCCCNC(=O)CC[C@H](NC(=O)CC[C@H](NC(=O)CC[C@H](NC(=O)CC[C@H](NC(=O)CC[C@H](NC(=O)CC[C@H](NC(=O)CCCCCCCCCCCCCCCCCCC(=O)O)C(=O)O)C(=O)O)C(=O)O)C(=O)O)C(=O)O)C(=O)O)C(=O)NCC(=O)NCC(=O)N1CCC[C@H]1C(=O)N[C@@H](CO)C(=O)N[C@@H](CO)C(=O)NCC(=O)N[C@@H](C)C(=O)N[C@@H](CO)C(=O)N[C@@H](CC(C)C)C(=O)N[C@@H](CCCNC(=N)N)C(=O)N[C@@H](Cc1c[nH]cn1)C(=O)N[C@@H](Cc1ccc(O)cc1)C(=O)N[C@@H](Cc1ccc(O)cc1)C(=O)N[C@@H](CC(N)=O)C(=O)N[C@@H](Cc1c[nH]c2ccccc12)C(=O)N[C@@H](CC(C)C)C(=O)N[C@H](C(=O)N[C@@H](CCCNC(=N)N)C(=O)N[C@@H](CCC(N)=O)C(=O)N[C@@H](CCCNC(=N)N)C(=O)N[C@@H](Cc1ccc(O)cc1)C(N)=O)[C@@H](C)O [Compound 221, Y-Aib-E-G-T-F-T-S-D-Y-S-I-Aib-L-E-K-Q-A-Q-Aib-A-F-V-E-W-L-I-K(1,3)-GGPSSGASLRHYYNWLTRQRY-NH2.C20DA-gGlu-gGlu-gGlu-gGlu-gGlu-gGlu-eLys(1,2)] | 0.11 nM | – | 0.14 nM | – | 12.4 nM | 49.3 nM | 11 h | 51 % CTL |
| CC[C@H](C)[C@H](NC(=O)[C@H](CC(C)C)NC(=O)[C@H](Cc1c[nH]c2ccccc12)NC(=O)[C@H](CCC(=O)O)NC(=O)[C@@H](NC(=O)[C@H](Cc1ccccc1)NC(=O)[C@H](C)NC(=O)C(C)(C)NC(=O)[C@H](CCC(N)=O)NC(=O)[C@H](C)NC(=O)[C@H](CCC(N)=O)NC(=O)[C@H](CCCCN)NC(=O)[C@H](CCC(=O)O)NC(=O)[C@H](CC(C)C)NC(=O)C(C)(C)NC(=O)[C@@H](NC(=O)[C@H](CO)NC(=O)[C@H](Cc1ccc(O)cc1)NC(=O)[C@H](CC(=O)O)NC(=O)[C@H](CO)NC(=O)[C@@H](NC(=O)[C@H](Cc1ccccc1)NC(=O)[C@@H](NC(=O)CNC(=O)[C@H](CCC(=O)O)NC(=O)C(C)(C)NC(=O)[C@@H](N)Cc1ccc(O)cc1)[C@@H](C)O)[C@@H](C)O)[C@@H](C)CC)C(C)C)C(=O)N[C@@H](CCCCNC(=O)[C@@H](N)CCCCNC(=O)CC[C@H](NC(=O)CC[C@H](NC(=O)CC[C@H](NC(=O)CC[C@H](NC(=O)CC[C@H](NC(=O)CC[C@H](NC(=O)CCCCCCCCCCCCCCCCCCC(=O)O)C(=O)O)C(=O)O)C(=O)O)C(=O)O)C(=O)O)C(=O)O)C(=O)NCC(=O)NCC(=O)N1CCC[C@H]1C(=O)N[C@@H](CO)C(=O)N[C@@H](CCC(=O)O)C(=O)NCC(=O)N[C@@H](C)C(=O)N[C@@H](CO)C(=O)N[C@@H](CC(C)C)C(=O)N[C@@H](CCCNC(=N)N)C(=O)N[C@@H](Cc1c[nH]cn1)C(=O)N[C@@H](Cc1ccc(O)cc1)C(=O)N[C@@H](Cc1ccc(O)cc1)C(=O)N[C@@H](CC(N)=O)C(=O)N[C@@H](Cc1c[nH]c2ccccc12)C(=O)N[C@@H](CC(C)C)C(=O)N[C@H](C(=O)N[C@@H](CCCNC(=N)N)C(=O)N(C)[C@@H](CCC(N)=O)C(=O)N[C@@H](CCCNC(=N)N)C(=O)N[C@@H](Cc1ccc(O)cc1)C(N)=O)[C@@H](C)O [Compound 222, Y-Aib-E-G-T-F-T-S-D-Y-S-I-Aib-L-E-K-Q-A-Q-Aib-A-F-V-E-W-L-I-K(1,3)-G-G-P-S-E-G-A-S-L-R-H-Y-Y-N-W-L-T-R-NMeQ-R-Y-NH2.C20DA-gGlu-gGlu-gGlu-gGlu-gGlu-gGlu-eLys(1,2)] | 0.24 nM | – | 0.19 nM | – | 13.3 nM | – | 11.8 h | 72 % CTL |

From patent US20240247080A1, “GLP1/GIP/NPY2 RECEPTOR TRIPLE AGONISTS” (Boehringer Ingelheim International GmbH, priority 2022, published 2024)
